Patent US4968671A, “Therapeutic agents for ischemic heart diseases” (Yamanouchi Pharmaceutical Co., Ltd., priority 1987, dated 1990)

Tests used:
[1] = tested on: dogs; assay: inhibitory action on ventricular extra systole on reperfusion of the occluded coronary artery in anesthetized open-chest dogs; assay type: in vivo; conditions: 60 min coronary occlusion then 20 min reperfusion, 300 mg/kg i.v. + 10 mg/kg/min i.v., mean ± standard deviation, P < 0.05 vs control group (35.9 ± 10.2)
Procedure: The inhibitory action of glutathione monoisopropyl ester on ventricular extra systole occurred when the occluded coronary artery was reperfused in dogs was tested with the following method.
Measurement was carried out by partially modifying Gibsons' method (J. Cardiovasc. Pharmacol., 5, 517-524, 1983). Dogs (Mongrel, female and male, 9-18 kg) were anesthetized with pentobarbital, the chest was opened under artificial respiration. And then the left coronary artery anterior descending segmental branch was occluded for 60 minutes. Thereafter, a reperfusion was carried out for 20 minutes and then blood pressure and heart rate as well as the heart surface electrocardiogram were measured.
The glutathione monoisopropyl ester (GE) was intravenously administered in a single dose of 300 mg/kg 30 minutes after the coronary artery occlusion and continuous injection was carried out in the amount of 10 mg/kg/min, i.v., until the completion of this test from 40 minutes after the coronary artery occlusion. The effect of an agent was evaluated by the number of the ventricular extra systole for a minute, which had been occured during the time period of reperfusion.

[2] = tested on: mice; assay: acute toxicity (LD50), intraperitoneal injection to mice; assay type: in vivo

CC(C)OC(=O)CNC(=O)[C@H](CS)NC(=O)CC[C@H](N)C(=O)O [GE, isopropyl r-L-glutamyl-L-cysteinyl glycinate]
Number of ventricular extra systole [1]: 10.0 ± 5.6 counts/min | acute toxicity (LD50) [2]: approximately 5.3 g/kg
